Non-standard residues stand in square brackets, D forms with d. Residues, ends and D or L forms follow the SMILES beside them. *: point of attachment. Thz = O=C(O)[C@@H]1CSCN1; Cbz = O=C(OCc1ccccc1)*
What was measured:
[1] = test system: scopolamine-induced amnesia; experiment: Step-down passive avoidance test (anti-amnestic activity, scopolamine-induced amnesia); assay type: in vivo, rats; settings: scopolamine 0.5 mg/kg i.p., relative to scopolamine-treated group, retention trial 24 hours after acquisition
Source text: A step-down passive avoidance test on rats was used as the method of assay for anti-amnestic activity to estimate the preventive effect of prolylendopeptidase inhibitors on scopolamine-induced amnesia. This method of assay involved application of electric shocks to animals upon their stepping down on a grid floor to see whether they have learned that such shocks can be avoided by staying on a platform. A passive avoidance test chamber used in this experiment was comprised of an electrifiable grid floor (20 cm in length and 22 cm in width) and a platform (20 cm in length, 15 cm in width and 5 cm in height) placed at the right back corner thereof.
5-Weeks-old male rats of Wister strain weighing 100-150 g (purchased from Japan Clea Laboratory) were used in the test.
Each test compound used in the doses indicated in Tables 1 - 4 was dissolved or suspended in 4% gum arabic-containing distilled water (1.0 ml) and administered p.o. one hour before the commencement of acquisition trial. In addition, scopolamine hydrobromide dissolved in saline (0.5 ml) was intraperitoneally administered in a dose of 0.5 mg/kg 30 minutes before the acquisition trial to prepare experimental animal models of amnesia.
In the acquisition trial, the rat was placed on the platform in the test chamber and, when the animal stepped down on the grid floor, the electric current of 5.0 mA was immediately sent to the grid floor continuously until the animal went up on the platform. If the rat having gone up on the platform stayed there for more than 30 seconds, the animal was regarded to have learned the situation and taken out of the test chamber. A total time of measurement in the acquisition trial was limited to 300 seconds as maximum, and the time elapsing until the rat learned the situation was measured. In order to avoid any significant difference in the rats, those which took more than 300 seconds for the learning were excluded from the experiment.
The retention trial was carried out 24 hours after the acquisition trial. In this trial, the rat was placed again on the platform in the test chamber, the time elapsing until the animal stepped down onto the grid floor (the step-down latency) was measured.
In each of these tables they are indicated as relative step-down latency, shown by each test compound-treated group in the retention trial, to step-down latency for scopolamine-treated group (i.e. test compound-treated group's step-down latency/scopolamine-treated group's step-down latency).

bovine brain PEP = biological target: T1, bovine brain PEP (Bos taurus, UniProt Q9XTA2); experiment: Inhibitory activity against proline endopeptidase (PEP), substrate Z-Gly-Pro-β-NA; assay type: biochemical; settings: pH 7.0, 37°C
T1 construct: from tissue; host or cells: bovine brain
T1 sequence (Q9XTA2 1-710): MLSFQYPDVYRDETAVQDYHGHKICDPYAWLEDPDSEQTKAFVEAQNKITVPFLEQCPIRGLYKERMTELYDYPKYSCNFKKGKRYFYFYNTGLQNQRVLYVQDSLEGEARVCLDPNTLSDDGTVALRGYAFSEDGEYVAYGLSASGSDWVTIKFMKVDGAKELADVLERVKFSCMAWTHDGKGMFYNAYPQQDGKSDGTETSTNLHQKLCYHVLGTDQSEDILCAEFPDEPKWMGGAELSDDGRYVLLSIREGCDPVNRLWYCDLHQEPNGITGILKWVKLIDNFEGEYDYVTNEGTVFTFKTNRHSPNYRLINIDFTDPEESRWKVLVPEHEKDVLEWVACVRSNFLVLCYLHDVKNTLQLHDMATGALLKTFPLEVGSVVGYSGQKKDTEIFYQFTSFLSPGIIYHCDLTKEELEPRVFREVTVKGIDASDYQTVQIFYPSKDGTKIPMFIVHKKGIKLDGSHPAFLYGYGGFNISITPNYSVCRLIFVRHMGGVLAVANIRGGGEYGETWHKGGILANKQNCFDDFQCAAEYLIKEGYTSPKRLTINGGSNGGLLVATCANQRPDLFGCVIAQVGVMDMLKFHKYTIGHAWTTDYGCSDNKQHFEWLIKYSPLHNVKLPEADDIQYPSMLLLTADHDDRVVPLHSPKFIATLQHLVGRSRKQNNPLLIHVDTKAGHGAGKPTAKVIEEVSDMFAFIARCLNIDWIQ
Experimental: The thioproline derivatives of the general formula (I) shown above as test compound were assayed for inhibitory activity against bovine brain PEP by the following test procedure using as substrate N-benzyloxycarbonyl-glycyl-proline-β-naphthylamide (Z-Gly-Pro-β-NA).
100 µl of PEP (about 0.14 U/ml) and 100µl of one of test compound solutions adjusted to different concentrations (0, 10⁻⁹ - 10⁻⁴M) were added to 0.7 ml of 20 mM Tris-HCl buffer (pH = 7.0) containing 10 mM EDTA and 10 mM 2-mercaptoethanol, and the mixture was preincubated at 37°C for 5 minutes. […] The reaction was […] using 25% trichloroacetic acid, and the reaction mixture was centrifuged at 3,000 r.p.m. for 10 minutes. To 0.5 ml of the supernatent was added 0.5 ml of 0.1% nitrous acid, and after 3 minutes 0.05% solution of N-(l-naphthyl)etnylenediamine dihydrochloride in ethanol was added thereto. The mixture was allowed to stand at 37°C for 25 minutes and then the absorbance at 570 nm was measured.
Enzyme Activity Unit = ΔOD x 0.42 x Dilution ratio (µmol/min/ml)

SMILES | Relative step-down latency in retention trial (mean±S.E.) ([1]; Table 3, dose 12.5 mg/kg p.o.) | Relative step-down latency in retention trial (mean±S.E.) ([1]; Table 3, dose 25 mg/kg p.o.) | Relative step-down latency in retention trial (mean±S.E.) ([1]; Table 3, dose 50 mg/kg p.o.) | Relative step-down latency in retention trial (mean±S.E.) ([1]; Table 3, dose 100 mg/kg p.o.) | Relative step-down latency in retention trial (mean±S.E.) ([1]; Table 2, dose 0.008 mg/kg p.o.) | Relative step-down latency in retention trial (mean±S.E.) ([1]; Table 2, dose 0.04 mg/kg p.o.) | Relative step-down latency in retention trial (mean±S.E.) ([1]; Table 2, dose 0.2 mg/kg p.o.) | Relative step-down latency in retention trial (mean±S.E.) ([1]; Table 2, dose 1 mg/kg p.o.) | Relative step-down latency in retention trial (mean±S.E.) ([1]; Table 2, dose 5 mg/kg p.o.) | Relative step-down latency in retention trial (mean±S.E.) ([1]; Table 2, dose 25 mg/kg p.o.) | IC50 (bovine brain PEP) [µM]
COc1ccc(C(=O)N2CCCC2=O)cc1 [aniracetam, reference compound] | 1.1±0.4 | 1.6±0.6 | 2.3±0.6 | 0.7±0.3 | – | – | – | – | – | – | –
O=C[C@@H]1CSCN1C(=O)[C@@H]1CSCN1C(=O)OCc1ccccc1 [ZTT, Benzyloxycarbonyl-L-thioprolyl-L-thioprolinal, reference compound] (Cbz-[Thz]-[Thz]-aldehyde) | – | – | – | – | 1.0±0.3 | 3.0±1.2 | 2.6±0.9 | 1.6±0.8 | 1.0±0.2 | 1.4±0.9 | –
CCOC(OCC)[C@@H]1CSCN1C(=O)[C@@H]1CSCN1C(=O)OCc1ccccc1 [Example 2, Benzyloxycarbonyl-L-thioprolyl-L-thioprolinal diethyl acetal] | – | – | – | – | 1.5±0.6 | 2.7±1.4 | 1.7±0.9 | 2.3±1.2 | 1.5±0.6 | 1.3±0.7 | 250
COC(OC)[C@@H]1CSCN1C(=O)[C@@H]1CSCN1C(=O)OCc1ccccc1 [Example 1, Benzyloxycarbonyl-L-thioprolyl-L-thioprolinal dimethyl acetal] | – | – | – | – | 0.9±0.1 | 2.4±1.1 | 2.5±1.5 | 1.4±0.3 | 1.1±0.4 | 1.6±0.6 | 10
